The values below are quoted from earlier work in publication PMC8405091, “Microwave-assisted Phospha-Michael addition reactions in the 13α-oestrone series and in vitro antiproliferative properties” (Journal of Enzyme Inhibition and Medicinal Chemistry, 2021).

The series deals with certain cancer cell lines. The arrangement: method as in PMID 25845933. As to conditions: cited from earlier work.

Molecules are shown by their SMILES.

Take `CCc1ccc(-c2cn([C@H]3C[C@H]4[C@@H]5CCc6cc(OCc7ccccc7)ccc6[C@H]5CC[C@@]4(C)[C@@H]3O)nn2)cc1` [Compound 28]: the IC50 result was “low micromolar range”.
